Measured values taken from ChEMBL document CHEMBL1201862, “PubChem BioAssay data set” (2004).
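Method: 48-hour compound exposure of cells in 96-well plates, five concentrations, linear interpolation of endpoints. At the GI50, growth is halved.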 Active and inactive are the calls of the source. Rule as the data show it: active = GI50 up to about 1.1 µM and inactive = higher.

Key:
Assay in all cases: NCI tumour cell line growth inhibition, 48 h
UACC-62 = tested on: UACC-62
SK-OV-3 = tested on: SK-OV-3
NCI-H522 = tested on: NCI-H522
HT-29 = tested on: HT-29
LOX IMVI = tested on: LOX IMVI
HOP-62 = tested on: HOP-62
SF-268 = tested on: SF-268
A549 = tested on: A549
786-0 = tested on: 786-0
SK-MEL-5 = tested on: SK-MEL-5
COLO 205 = tested on: COLO 205
HOP-92 = tested on: HOP-92
MCF7 = tested on: MCF7
Hs-578T = tested on: Hs-578T
HCT-116 = tested on: HCT-116
RPMI-8226 = tested on: RPMI-8226
K562 = tested on: K562
DU-145 = tested on: DU-145
SF-539 = tested on: SF-539
TK-10 = tested on: TK-10

Measured: GI50

CC1(CCC(=O)OC2CCCCC2)OCCO1
inactive: UACC-62 > 100 µM | SK-OV-3 > 100 µM | NCI-H522 > 100 µM | HT-29 > 100 µM | LOX IMVI > 100 µM | HOP-62 > 100 µM | SF-268 > 100 µM | A549 > 100 µM | 786-0 > 100 µM | SK-MEL-5 > 100 µM | COLO 205 > 100 µM | HOP-92 > 100 µM | MCF7 > 100 µM | Hs-578T > 100 µM | HCT-116 > 100 µM | RPMI-8226 > 100 µM | K562 > 100 µM | DU-145 > 100 µM | SF-539 > 100 µM | TK-10 > 100 µM

CC(N1CCOCC1)C(O)(c1ccccc1)c1ccccn1 (configuration not stated)
inactive: UACC-62 37.8 µM | SK-OV-3 > 100 µM | NCI-H522 > 100 µM | HT-29 > 100 µM | LOX IMVI > 100 µM | HOP-62 > 100 µM | SF-268 > 100 µM | A549 > 100 µM | 786-0 > 100 µM | SK-MEL-5 > 100 µM | COLO 205 > 100 µM | HOP-92 > 100 µM | MCF7 41 µM | Hs-578T > 100 µM | HCT-116 > 100 µM | RPMI-8226 > 100 µM | K562 > 100 µM | DU-145 > 100 µM | SF-539 > 100 µM | TK-10 > 100 µM

O=NN1C(c2ccccc2)CC(=NO)CC1c1ccccc1 (configuration not stated)
inactive: UACC-62 > 100 µM | SK-OV-3 > 100 µM | NCI-H522 > 100 µM | HT-29 20.5 µM | LOX IMVI > 100 µM | HOP-62 > 100 µM | SF-268 > 100 µM | A549 > 100 µM | 786-0 > 100 µM | SK-MEL-5 > 100 µM | COLO 205 > 100 µM | HOP-92 > 100 µM | MCF7 > 100 µM | Hs-578T > 100 µM | HCT-116 71.1 µM | RPMI-8226 68.1 µM | K562 43.8 µM | DU-145 > 100 µM | SF-539 > 100 µM | TK-10 > 100 µM

O=C(OCc1ccccc1)N1c2cc([N+](=O)[O-])ccc2C(=O)N2CCC[C@H]2C1O (some centres not stated)
inactive: UACC-62 > 100 µM | SK-OV-3 > 100 µM | NCI-H522 > 100 µM | HT-29 > 100 µM | LOX IMVI > 100 µM | HOP-62 > 100 µM | SF-268 > 100 µM | A549 > 100 µM | 786-0 > 100 µM | SK-MEL-5 > 100 µM | COLO 205 > 100 µM | HOP-92 > 100 µM | MCF7 > 100 µM | Hs-578T > 100 µM | HCT-116 > 100 µM | RPMI-8226 > 100 µM | K562 > 100 µM | DU-145 > 100 µM | SF-539 > 100 µM | TK-10 > 100 µM

Cc1nc2c(sc3nc4c(cc32)CCC4)c(=O)o1
inactive: UACC-62 > 100 µM | SK-OV-3 > 100 µM | NCI-H522 31 µM | HT-29 36.7 µM | LOX IMVI 41.4 µM | HOP-62 > 100 µM | SF-268 49.7 µM | A549 > 50.5 µM | 786-0 > 72.4 µM | SK-MEL-5 37.5 µM | COLO 205 54.6 µM | HOP-92 > 50.1 µM | MCF7 > 81.3 µM | Hs-578T 45.9 µM | HCT-116 32.8 µM | RPMI-8226 48.9 µM | K562 57.9 µM | DU-145 > 100 µM | SF-539 40.5 µM | TK-10 > 64.6 µM

CN1CSC(=S)N(c2c3ccccc3nc3ccc(Br)cc23)C1
inactive: UACC-62 14 µM | SK-OV-3 12.9 µM | NCI-H522 4.4 µM | HT-29 5.42 µM | LOX IMVI 7.83 µM | HOP-62 7.87 µM | SF-268 9.64 µM | A549 6.22 µM | 786-0 4.7 µM | SK-MEL-5 12.4 µM | COLO 205 6.43 µM | HOP-92 16.3 µM | MCF7 5.83 µM | Hs-578T 17.8 µM | HCT-116 4.28 µM | RPMI-8226 7.71 µM | K562 2.32 µM | DU-145 8.09 µM | SF-539 11.6 µM | TK-10 9.51 µM

O=C(NC(=S)Nc1ccc2c(c1)Sc1ccccc1O2)c1ccccc1
inactive: UACC-62 22.5 µM | SK-OV-3 29 µM | NCI-H522 31.8 µM | HT-29 35.4 µM | LOX IMVI 39.1 µM | HOP-62 27.4 µM | SF-268 41.4 µM | A549 45.5 µM | 786-0 20.3 µM | SK-MEL-5 20.8 µM | COLO 205 38.8 µM | HOP-92 24.2 µM | MCF7 34.2 µM | Hs-578T 39.6 µM | HCT-116 41 µM | RPMI-8226 51.3 µM | K562 6.27 µM | DU-145 36.2 µM | SF-539 22.6 µM | TK-10 20.8 µM

CCOC(=O)C1=C(C)N(c2ccc(Cl)cc2)C2(O)C=CC(O)=C3C(=O)c4ccccc4C(=O)C312 (configuration not stated)
inactive: UACC-62 3.44 µM | SK-OV-3 10.6 µM | NCI-H522 2.21 µM | LOX IMVI 3.72 µM | HOP-62 5.2 µM | SF-268 1.67 µM | A549 4.56 µM | 786-0 2.12 µM | SK-MEL-5 7.96 µM | COLO 205 3.72 µM | HOP-92 1.73 µM | MCF7 2.72 µM | Hs-578T 4.26 µM | HCT-116 3.2 µM | RPMI-8226 1.8 µM | K562 4.23 µM | DU-145 8.09 µM | SF-539 4.16 µM | TK-10 1.71 µM

Fc1ccc(F)c(/C=N/C23CC4CC(CC(C4)C2)C3)c1
inactive: SK-OV-3 > 10 µM | NCI-H522 > 10 µM | HT-29 > 10 µM | LOX IMVI > 10 µM | HOP-62 > 10 µM | SF-268 > 10 µM | A549 > 10 µM | 786-0 > 10 µM | SK-MEL-5 > 10 µM | COLO 205 > 10 µM | HOP-92 > 10 µM | MCF7 > 10 µM | Hs-578T > 10 µM | HCT-116 > 10 µM | RPMI-8226 > 10 µM | K562 4.44 µM | DU-145 > 10 µM | SF-539 > 10 µM | TK-10 > 10 µM

CCOP(=O)(C[S+](C)[O-])O[C@@H]1C[C@H](C)CC[C@H]1C(C)C (some centres not stated)
inactive: UACC-62 2.17 µM | SK-OV-3 6.95 µM | NCI-H522 2.26 µM | LOX IMVI 1.77 µM | HOP-62 5.53 µM | SF-268 6.44 µM | A549 4.85 µM | 786-0 2.73 µM | SK-MEL-5 2.25 µM | COLO 205 6.19 µM | HOP-92 3.97 µM | MCF7 3.08 µM | Hs-578T 3.26 µM | HCT-116 2.75 µM | RPMI-8226 1.85 µM | K562 3.4 µM | DU-145 6.37 µM | SF-539 12.2 µM | TK-10 3.63 µM
